# Results published in patent US20260232768A1, “TREATMENT OF ATOPIC DERMATITIS WITH POLYETHYLENE GLYCOL-MODIFIED INTERLEUKIN 2, GLUCOCORTICOID AND HYALURONIC ACID” (priority 2023, published 2026).
# Marks after values point to notes of the source that are not given here.
# Legend:
# [1] = test system: OVA induced atopic dermatitis (AD) mouse model; test: OVA induced atopic dermatitis (AD) mouse model, skin inflammation status scoring; type: in vivo, BALB/c mice; details: AD model mice, topical patch for 3 consecutive days; total score 0-12; 6 mice per group
# Description: 10 μg OVA was mixed with 2 mg of aluminum hydroxide in 200 μL of phosphate buffer (PBS) solution, intraperitoneally injected to sensitize mice, once every week (at day 0, 7 and 14), each mouse was injected 3 times, 200 μL each time. On day 14, mice were anesthetized using pentobarbital intraperitoneal injection. […] The OVA patch was prepared by wetting a 1.5×1.5 cm^2 sterile gauze in a solution of 1 mg/mL of OVA (dissolved in PBS) (approximately 100 μL of OVA solution), and was attached using a transparent dressing to the back skin after epilation and replaced daily for 3-7 days to develop dermatitis manifestation, and the status of the back skin of the mice was recorded photographically on day 4~5 after inducing mouse dermatitis (the dermatitis manifestation was most obvious), and the skin inflammation status was scored. […]
# Skin inflammation status scores assess dermatitis severity clinically. The total score was 0 to 12, evaluated from four aspects, edema, erythema, scaling and erosion, respectively, an individual score was 0-3 (0, no; 1, mild; 2, moderate; 3, severe), and the final score was the sum of each individual term [SCHWARTZ C, et al. Spontaneous atopic dermatitis in mice with a defective skin barrier is independent of ILC2 and mediated by IL-1β.
# [2] = test system: CD25+FoxP3+ cells in spleen CD3+CD4+ lymphocytes and PD-1+ cells in CD3+CD4+CD25+FoxP3+ cells; test: Intraperitoneal injection in physiological model mice, spleen Treg and PD-1 by flow cytometry; type: in vivo, BALB/c mice
# Excerpt: We intraperitoneally injected PEG-IL-2 modified with non-branched PEG of different molecular weight sizes in physiological model mice, and detected FoxP3+ regulatory T cells and the expression of PD-1 in spleen cells on day 4.
Compound,Dermatitis score (χ ± s) [1],up-regulation of FoxP3+ regulatory T cells in spleen (in words) ([2]; detected on day 4),"expression of PD-1 by regulatory T cells (in words) ([2]; spleen, day 4)"
"CCCC1O[C@@H]2C[C@H]3[C@@H]4CCC5=CC(=O)C=C[C@]5(C)[C@H]4[C@@H](O)C[C@]3(C)[C@]2(C(=O)CO)O1 (stereo partly drawn) [Budesonide alone, budesonide]",2.333 ± 1.211*^,–,–
"normal IL-2: recombinant human interleukin 2 not modified with PEG, SEQ ID NO: 1, 15 kD",–,did not up-regulate Tregs,can promote the expression of PD-1
